From patent US3979508A, “Compositions and methods therewith for penicillin hypersensitivity detection” (Kremers-Urban Company, priority 1975, dated 1976)

How the values were obtained:
[1] = system: penicillin hypersensitivity (patients); test: Comparison of skin tests with penicilloyl-poly-L-lysine and penicillin G (Table III); format: in vivo, human; conditions: 1163 tested
Description: (§1) One of the uses for the conjugates of this invention is in skin testing for penicillin hypersensitivity. The conjugated compositions are prepared for skin testing by first dissolving the composition in buffered isotonic solutions, having a pH in the range from 7 to 8. For example, the conjugates prepared above may be diluted with aqueous solutions 0.15 M NaCl in 0.01 M phosphate, pH 7.6. In addition, other physiological salt solutions may be used.
(§2) Intradermal injections may be made of the foregoing solutions with a 26 guage needle, the volume injected may be generally about 0.01 to 0.03 cc. Alternatively, the conjugate may be applied by the scratch test technique. The development of a wheal at the injection site after about 20 minutes indicates a positive reaction, and penicillin hypersensitivity.
(§3) Penicillin hypersensitivity tests carried out with the conjugate compositions of this invention reflect the numerous advantages of penicillin hypersensitivity determinations made with such compositions. […] In Table II the distribution of skin reactions is shown by history of penicillin therapy and hypersensitivity. […] (See column 2, for example, showing the percentages of patients tested who had […] skin test.)

[2] = system: penicillin hypersensitivity (patients); test: Skin tests for penicillin hypersensitivity: monostereoisomeric penicilloyl-poly-L-lysine vs mixture of stereoisomers (Table II); format: in vivo, human
Description: as §1, §2, §3

[3] = GROUP I: claimed prior history of non-sensitivity and previous penicillin treatments
[4] = GROUP II: claimed prior history of sensitivity and previous penicillin treatments
[5] = GROUP III: no prior history of sensitivity and no previous penicillin treatments

For penicilloyl-poly-L-lysine [PPL], the “POSITIVE SKIN TESTS %” value [1] was 17.9%, the “Positive Skin Tests, Number of Patients” value [1] was 209 and the “NEGATIVE SKIN TESTS %” value [2, 3] was 91.5%. For the same substance, the “NEGATIVE SKIN TESTS No.” value [2, 3] was 4223, the “NEITHER NEGATIVE NOR POSITIVE SKIN TESTS %” value [2, 3] was 0.7% and the “NEITHER NEGATIVE NOR POSITIVE SKIN TESTS No.” value [2, 3] was 36. For the same substance, the “POSITIVE SKIN TESTS %” value [2, 3] was 7.8%, the “POSITIVE SKIN TESTS No.” value [2, 3] was 358 and the “NEGATIVE SKIN TESTS %” value [2, 4] was 77.7%. For the same substance, the “NEGATIVE SKIN TESTS No.” value [2, 4] was 143, the “NEITHER NEGATIVE NOR POSITIVE SKIN TESTS %” value [2, 4] was “nil” and the “NEITHER NEGATIVE NOR POSITIVE SKIN TESTS No.” value [2, 4] was “nil”. The “POSITIVE SKIN TESTS %” value [2, 4] was 22.3%, the “POSITIVE SKIN TESTS No.” value [2, 4] was 41 and the “NEGATIVE SKIN TESTS %” value [2, 5] was 96.5%. For the same substance, the “NEGATIVE SKIN TESTS No.” value [2, 5] was 637, the “NEITHER NEGATIVE NOR POSITIVE SKIN TESTS %” value [2, 5] was 0.2% and the “NEITHER NEGATIVE NOR POSITIVE SKIN TESTS No.” value [2, 5] was 1. The “POSITIVE SKIN TESTS %” value [2, 5] was 3.3%, the “POSITIVE SKIN TESTS No.” value [2, 5] was 22 and the “NEGATIVE SKIN TESTS %” value ([2]; TOTALS, all groups) was 91.6%. The “NEGATIVE SKIN TESTS No.” value ([2]; TOTALS, all groups) was 5003, the “NEITHER NEGATIVE NOR POSITIVE SKIN TESTS %” value ([2]; TOTALS, all groups) was 0.7% and the “NEITHER NEGATIVE NOR POSITIVE SKIN TESTS No.” value ([2]; TOTALS, all groups) was 37. For the same substance, the “POSITIVE SKIN TESTS %” value ([2]; TOTALS, all groups) was 7.7% and the “POSITIVE SKIN TESTS No.” value ([2]; TOTALS, all groups) was 421.
